Laboratory results from US7064139B2, “Method for treating retroviral infections” (Uniroyal Chemical Company, Inc., priority 2001, dated 2006).
≈ marks a conversion by molar mass, not a printed value. Read-outs that look alike come from different tables or passages of the source.

What was measured:
HIV-1 (IIIB) = experiment: microbe, parasite or virus in culture; assay type: cell-based; conditions: for EC50: Human immunodeficiency virus 1, IIIB, CCRF-CEM, read-out: EC50 (ug/ml) HIV-1; for HIV-1 % Protection: protection of CEM cells against virus-induced cytopathicity at the concentration in the previous column
Text: (§1) The cell type used to determine activity of the compounds of the invention herein, i.e., the test compounds, against HIV was human T-lymphoblast (CEM) cells obtained from the American Tissue Cell Culture Collection (Rockville, Md.). HIV-1 (IIIB) was originally obtained from the culture of persistently HIV-1 infected H9 cells and was provided by R. C. Gallo and M. Popovic (National Cancer Institute, National Institutes of Health, Bethesda, Md.). HIV-2 (ROD) was originally obtained from L. M. Montagnier (Pasteur Institute, Paris, France).
(§2) To determine the antiviral activity of the test compounds, CEM cells were suspended at a cell density of approximately 300,000 cells per ml of culture medium and infected with approximately 100 CCID50 (100 CCID50 being the 50% cell culture infective dose) of HIV-1 (IIIB) or HIV-2 (ROD)). Then 100 μl of the infected cell suspensions was added to 200 μl micro titer plate wells containing 100 μl of appropriate serial (5-fold) dilutions of the test compounds. The inhibitory effect of the test compounds on HIV-1 or HIV-2 syncytium formation in CEM cells was examined microscopically on day four post infection.
(§3) In these cases, the percent protection of the cells against virus-induced cytopathicity by the test compounds at the indicated compound concentration in the previous column is given.

HIV-2 (ROD) = experiment: Inhibition of HIV-2 syncytium formation in CEM cells; assay type: cell-based; conditions: for EC50: Human immunodeficiency virus 2, CCRF-CEM, read-out: EC50 (ug/ml) HIV-2; for HIV-2 % Protection: protection of CEM cells against virus-induced cytopathicity at the concentration in the previous column
Text: as §1, §2, §3

Davis strain CMV = experiment: Reduction of CMV-induced cytopathicity in HEL cells; assay type: cell-based, human cytomegalovirus (HCMV); conditions: for Antiviral % Inhibition Davis strain CMV: estimate of percent protection at the concentration in the previous column; for EC50: read-out: Antiviral EC50 (ug/ml) Davis strain CMV
Method: Confluent HEL cells grown in […] microtiter plates were inoculated with CMV at an input of 100 PFU (plaque forming units) per well. After a one to two hour incubation period, residual virus was removed and the infected cells were further incubated with MEM (Minimal Essential Medium) (supplemented with 2% inactivated Fetal Calf Serum (FCS), […], and 0.3% sodium bicarbonate) containing varying concentrations of the test compounds. Antiviral activity was expressed as EC50 (50% effective concentration), or test compound concentration required to reduce virus-induced cytopathicity after seven days by 50% compared to the untreated control.
In some cases, the compounds had considerable cytotoxicity against HEL cells, which made determination of the EC50 difficult. In these cases, an estimate of the percent protection at the compound concentration indicated in the previous columns is given.

[1] = CEM cells, syncytium formation, day four post infection
[2] = HEL cells, virus-induced cytopathicity after seven days
[3] = Human betaherpesvirus 5, 168 h, HEL cells, virus-induced cytopathicity after seven days
[4] = Human betaherpesvirus 5, HEL, 168 h

SMILES	EC50 (ug/ml) HIV-1 (HIV-1 (IIIB); [1])	EC50 (ug/ml) HIV-2 (HIV-2 (ROD); [1])	Antiviral EC50 (ug/ml) Davis strain CMV (Davis strain CMV; [2]) [µg/mL]	Antiviral % Inhibition Davis strain CMV (Davis strain CMV; HEL cells) [%]	HIV-1 % Protection (HIV-1 (IIIB)) [%]	HIV-2 % Protection (HIV-2 (ROD)) [%]	other results
Cc1ccc(C)c(C(C)S(=O)(=O)c2cccc[n+]2[O-])c1 (centres unmarked) [Compound 9, 2-(1-[2,5-Dimethylphenyl]ethylsulfonyl)pyridine N-oxide]				0.0	37.5	0.0	EC50 (HIV-1 (IIIB); [1]): ≥ 100 µg/mL; EC50 (HIV-2 (ROD); [1]): > 100 µg/mL; EC50 (Davis strain CMV; [3]): > 50 µg/mL
CC(C)c1ccc(CS(=O)(=O)c2cccc[n+]2[O-])cc1 [Compound 58]	3.40 µg/mL (≈ 11.7 µM)	2.6 µg/mL (≈ 8.92 µM)	5.0				
Cc1ccc(C)c(C[S+]([O-])c2cccc[n+]2[O-])c1 (centres unmarked) [Compound 3]	7.20 µg/mL (≈ 27.5 µM)	≧20 ug/ml	36.0			37.5	
O=S(=O)(Cc1ccc(CS(=O)(=O)c2cccc[n+]2[O-])cc1)c1cccc[n+]1[O-] [Compound 23]	≧20 ug/ml	≧20 ug/ml	>20	20.0	37.5	37.5	
Cc1ccc(C)c(CSc2c(Cl)ccc[n+]2[O-])c1 [Compound 133, 3-Chloro-2-[[(2,5-dimethylphenyl)methyl]thio]pyridine 1-oxide]						0.0	EC50 (HIV-1 (IIIB)): 0.14 µg/mL (≈ 0.5 µM); EC50 (HIV-2 (ROD)): > 20 µg/mL; EC50 (Davis strain CMV; [4]): 25 µg/mL (≈ 89.4 µM)
Cc1cc(C)c(C[S+]([O-])c2cccc[n+]2[O-])c(C)c1 (centres unmarked) [Compound 88, 2-(2,4,6-trimethylbenzylsulfinyl)-pyridine-N-oxide]							EC50 (HIV-1 (IIIB); [1]): 1.5 µg/mL (≈ 5.45 µM); EC50 (HIV-2 (ROD); [1]): 1.5 µg/mL (≈ 5.45 µM); EC50 (Davis strain CMV; [3]): 25 µg/mL (≈ 90.8 µM)
O=[N+]([O-])c1ccc(CS(=O)(=O)c2cccc[n+]2[O-])cc1 [Compound 14]	>4 µg/mL	>4 µg/mL	7.0		0.0	25.0	
O=S(=O)(c1cccc[n+]1[O-])C(Cl)c1ccccc1 (stereo not drawn) [Compound 105, 2-(alpha-phenyl-alpha-chloromethylsulfonyl)pyridine-N-oxide]	16.00 µg/mL (≈ 56.4 µM)	2.5 µg/mL (≈ 8.81 µM)	23.0				
Cc1ccc(C)c(C[S+]([O-])c2c(C)ccc[n+]2[O-])c1 (centres unmarked) [Compound 70]	12.00 µg/mL (≈ 43.6 µM)	≧20 ug/ml	11.0			37.5	
O=S(=O)(Cc1c(Cl)c(Cl)c(Cl)c(Cl)c1Cl)c1cccc[n+]1[O-] [Compound 32, 2-(Pentachlorobenzylsulfonyl)-pyridine-N-oxide]							EC50 (HIV-1 (IIIB); [1]): 0.63 µg/mL (≈ 1.49 µM); EC50 (HIV-2 (ROD)): 1 µg/mL (≈ 2.37 µM); EC50 (Davis strain CMV; [4]): 14 µg/mL (≈ 33.2 µM)
COc1ccc(CS(=O)(=O)c2cccc[n+]2[O-])cc1OC [Compound 46]	≧20 ug/ml	15.0 µg/mL (≈ 48.5 µM)	>50	40.0	37.5		
Cc1ccc(C)c(CSc2ccccn2)c1.Cl [Compound 157]	6.00 µg/mL	≧20 ug/ml	>50	0.0		37.5	
O=S(=O)(Cc1ccc(Cl)c(Cl)c1)c1cccc[n+]1[O-] [Compound 37, 2-(3,4-dichlorobenzylsulfonyl)-pyridine-N-oxide]				30.0			EC50 (HIV-1 (IIIB); [1]): 1 µg/mL (≈ 3.14 µM); EC50 (HIV-2 (ROD); [1]): 1.3 µg/mL (≈ 4.09 µM); EC50 (Davis strain CMV; [3]): > 5 µg/mL
Cc1ccccc1CS(=O)(=O)c1c(C)ccc[n+]1[O-] [Compound 82]	9.30 µg/mL (≈ 33.5 µM)	≧20 ug/ml	>5	0.0		37.5	
O=S(=O)(Cc1ccc(Cl)cc1Cl)c1cccc[n+]1[O-] [Compound 18]	2.40 µg/mL (≈ 7.54 µM)	2.5 µg/mL (≈ 7.86 µM)	5.0				
Cc1ccc(C[S+]([O-])c2cccc[n+]2[O-])cc1C (centres unmarked) [Compound 89]	2.50 µg/mL (≈ 9.57 µM)	2.8 µg/mL (≈ 10.7 µM)	20.0				
Cc1ccc(C)c(CS(=O)(=O)c2cccc(C)[n+]2[O-])c1 [Compound 72]	4.00 µg/mL (≈ 13.7 µM)	>100.0 µg/mL	>50	0.0		0.0	
O=S(=O)(Cc1c2ccccc2cc2ccccc12)c1cccc[n+]1[O-] [Compound 51, 2[1(9-anthryl)methylsulfonyl]pyridine-N-oxide]					0.0	0.0	EC50 (HIV-1 (IIIB); [1]): > 0.8 µg/mL; EC50 (HIV-2 (ROD); [1]): > 0.8 µg/mL; EC50 (Davis strain CMV; [3]): 1.3 µg/mL (≈ 3.72 µM)

Now from value to compound, other results behind:

EC50 (ug/ml) HIV-1 (HIV-1 (IIIB); [1])	EC50 (ug/ml) HIV-2 (HIV-2 (ROD); [1])	Antiviral EC50 (ug/ml) Davis strain CMV (Davis strain CMV; [2]) [µg/mL]	SMILES	Antiviral % Inhibition Davis strain CMV (Davis strain CMV; HEL cells) [%]	HIV-1 % Protection (HIV-1 (IIIB)) [%]	HIV-2 % Protection (HIV-2 (ROD)) [%]	other results
1.90 µg/mL (≈ 6.16 µM)	5.0 µg/mL (≈ 16.2 µM)	>5	Cc1ccc([N+](=O)[O-])c(CS(=O)(=O)c2cccc[n+]2[O-])c1 [Compound 62]	20.0			
>20 µg/mL	>20 µg/mL	7.0	COc1cc(C=C(C#N)Sc2cccc[n+]2[O-])cc(OC)c1OC [Compound 160]		0.0	0.0	
>14 µg/mL	11.0 µg/mL (≈ 36.9 µM)	>5	Cc1cc[n+]([O-])c(S(=O)(=O)Cc2ccc(Cl)cc2)c1 [Compound 129]	20.0			
3.10 µg/mL (≈ 9.7 µM)	3.4 µg/mL (≈ 10.6 µM)	1.5	CCC(C)(C)c1ccc(CS(=O)(=O)c2cccc[n+]2[O-])cc1 [Compound 40, 2-(((4-(1,1-dimethyl)propyl)phenyl)methylsulfonyl)pyridine-N-oxide]				
6.50 µg/mL (≈ 24.3 µM)	7.5 µg/mL (≈ 28.1 µM)	>20	O=S(=O)(Cc1cccc(F)c1)c1cccc[n+]1[O-] [Compound 28]	40.0			
1.90 µg/mL (≈ 6.09 µM)	2.6 µg/mL (≈ 8.34 µM)	12.0	Cc1ccc(C)c(CS(=O)(=O)c2ccc(Cl)c[n+]2[O-])c1 [Compound 94]				
2.30 µg/mL (≈ 5.58 µM)	2.5 µg/mL (≈ 6.06 µM)	3.7	CC(C)c1cc(CS(=O)(=O)c2cccc[n+]2[O-])c(C(C)C)cc1Br [Compound 63]				
2.80 µg/mL (≈ 8.25 µM)	3.5 µg/mL (≈ 10.3 µM)	5.0	O=[N+]([O-])c1cc(CS(=O)(=O)c2cccc[n+]2[O-])cc([N+](=O)[O-])c1 [Compound 65]				
>20 µg/mL	>20.00 µg/mL	12.5	COc1ccc(CS(=O)(=O)c2cc(C(C)(C)C)cc[n+]2[O-])cc1 [Compound 135]		0.0	0.0	
>.8 µg/mL	>0.8 µg/mL	4.3	Cc1ccc(C)c(C(C)[S+]([O-])c2cccc[n+]2[O-])c1 (centres unmarked) [Compound 103]		0.0	0.0	
≧4 ug/ml	2.6 µg/mL (≈ 8.51 µM)	3.2	CC(C)Cc1ccc(CS(=O)(=O)c2cccc[n+]2[O-])cc1 [Compound 55]		37.5		
≧100 ug/ml	>100 µg/mL	>50	[O-][n+]1ccccc1SCc1ccccc1 [Compound 4]	0.0	37.5	0.0	
